These are literature values, as cited in patent US20030092754A1, “External preparation for skin diseases containing nitroimidazole” (priority 1999, published 2003).

The structures appear in SMILES notation.

The subject of data set [1] is swelling of the ears induced by dinitrofluorobenzene. The following applies: sensitized mice, intraperitoneal administration.
In a further data set the test system is delayed immune reaction. The following applies: intraperitoneal administration.
Another data set deals with granuloma formation. The following applies: mice, oral administration.
The test system of the next data set is anti-TBA antibody titer. The following applies: rabbits, intraperitoneal administration.

For the compound `Cc1ncc([N+](=O)[O-])n1CCO` [metronidazole, 2-(2-methyl-5-nitroimidazol-1-yl)ethanol], the “swelling of the ears induced by dinitrofluorobenzene” value in data set [1] is listed as “inhibit swelling of the ears”. In addition, in the data set with leukocyte migration, the “action on leukocyte migration” value was “inhibitory action on leukocyte migration”. Also, the “delayed immune reaction to intravenous injection of ovine erythrocytes” value with delayed immune reaction was “inhibits a delayed immune reaction”. Also, the anti-Trichomonas activity entry in the data set on Trichomonas is recorded as “potent anti-Trichomonas activity”. In the data set on granuloma formation, the “formation of granuloma by eggs of Schistosoma mansoni” value is listed as “inhibited”. For the same compound, in the data set on Entamoeba histolytica, the “antimicrobial activity against Entamoeba histolytica” value is on record as “strong antimicrobial activity”. In addition, the “increases in anti-TBA antibody titer to TBA vaccine” value in the data set on anti-TBA antibody titer is recorded as “significantly inhibits”.

For `CCS(=O)(=O)CCn1c([N+](=O)[O-])cnc1C` [tinidazole, 1-(2-ethylsulfonylethyl)-2-methyl-5-nitroimidazole], in the data set with leukocyte migration, the “action on leukocyte migration” value is given as “clearly exhibits inhibitory action of leukocyte migration”. Also, in the data set with delayed immune reaction, the “delayed immune reaction to intravenous injection of ovine erythrocytes” value is “tends to inhibit delayed immune reaction”. The anti-Trichomonas activity entry in the data set on Trichomonas was “primarily has anti-Trichomonas activity”.
